This note sets out measurements from ChEMBL document CHEMBL3588748, “Original 2-(3-Alkoxy-1H-pyrazol-1-yl)azines Inhibitors of Human Dihydroorotate Dehydrogenase (DHODH)” (J Med Chem, 2015).

Data set [1] deals with Plasmodium falciparum. The data set is described as follows: Antiplasmodial activity against Plasmodium falciparum 3D7 assessed as inhibition of parasite growth at 8.66 ug/ml by SYBR Green I dye based assay. The data set is classed as functional, organism-based.
Data set [2] in a line: Half life in human microsomes. It counts as ADME, Microsome.
Data set [3] has as its system Measles morbillivirus.
Description: (§1) Antiviral activity against measles virus rMV2/Luc infected in HEK-293T cells assessed as inhibition of virus growth incubated for 24 hrs by firefly luciferase reporter gene assay
Data set [4] has as its target T1, Dihydroorotate dehydrogenase (quinone), mitochondrial (Plasmodium falciparum (isolate 3D7)) (UniProt Q08210).
T1 sequence (whole entry): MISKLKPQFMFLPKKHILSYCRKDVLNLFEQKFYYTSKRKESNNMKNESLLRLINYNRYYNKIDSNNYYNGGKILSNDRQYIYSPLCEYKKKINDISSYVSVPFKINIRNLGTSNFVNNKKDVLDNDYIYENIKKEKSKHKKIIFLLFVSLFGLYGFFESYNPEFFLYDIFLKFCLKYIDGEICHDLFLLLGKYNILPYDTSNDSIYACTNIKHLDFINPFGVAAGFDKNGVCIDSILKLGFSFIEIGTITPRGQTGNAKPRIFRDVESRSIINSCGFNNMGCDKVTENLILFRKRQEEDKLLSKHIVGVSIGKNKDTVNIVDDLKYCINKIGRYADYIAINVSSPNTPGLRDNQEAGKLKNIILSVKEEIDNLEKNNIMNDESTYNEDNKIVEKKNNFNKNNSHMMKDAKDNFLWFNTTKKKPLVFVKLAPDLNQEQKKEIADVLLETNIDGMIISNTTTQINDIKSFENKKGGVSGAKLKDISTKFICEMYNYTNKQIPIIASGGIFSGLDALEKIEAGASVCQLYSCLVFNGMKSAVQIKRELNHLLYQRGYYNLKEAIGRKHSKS
The data set is described as follows: Inhibition of Plasmodium falciparum DHODH expressed in Escherichia coli by […]-based spectrophotometric method.

The test system of data set [5] is Plasmodium falciparum. The data set can be described thus: Antiplasmodial activity against Plasmodium falciparum 3D7 assessed as inhibition of parasite growth by SYBR Green I dye based assay. It counts as functional, organism-based.
A further data set has as its system Jurkat. The data set is described as follows: Inhibition of cell proliferation of human Jurkat cells incubated for 72 hrs by Celltiter-Glo assay. It counts as functional, cell-based. A general note: ATP-based viability assays read luminescence as a measure of living cells.
In data set [6] the test system is Measles morbillivirus. The data set can be described thus: microbe, parasite or virus in culture. The settings on record: rMV2/Luc, 24 h.
Description: as §1

In general, IC50 refers to the concentration that gives 50% inhibition.

Values after ≈ are worked out from the molar mass of the structure shown. Active and inactive are the calls of the source.

In the case of `Cc1c(Oc2ccccc2F)c(OC(C)C)nn1-c1ccc(C2CC2)cn1`, the “growth inhibition (GI)” value in the data set on Plasmodium falciparum [1] was “inactive”. The t1/2 in data set [2] is 4 min. In the data set with Measles morbillivirus [3], this molecule returned a pMIC50 of 7.4.
For `Cc1c(Oc2c(F)cccc2F)c(OC(C)C)nn1-c1ccc(C2CC2)cn1`, the “growth inhibition (GI)” value in the data set with Plasmodium falciparum [1] is “inactive”. In data set [2], this molecule showed a t1/2 of 6 min. For the same molecule, the pMIC50 in the data set on Measles morbillivirus [3] was 9.
On to `Cc1c(Oc2c(F)cccc2F)c(OC(C)C)nn1-c1ncc(C2CC2)cc1O`, for which the “growth inhibition (GI)” value with Plasmodium falciparum [1] was “inactive”. The t1/2 in data set [2] is given as 38 min. In the data set on Measles morbillivirus [3], the pMIC50 was found to be 8.1.
As for `Cc1c(Oc2c(F)cccc2F)c(OC(C)C)nn1-c1ccc(C2CC2)nn1`, in data set [4], the inhibition entry was “inactive”. Moreover, in the data set with Plasmodium falciparum [5], the IC50 is 330 nM.
For the molecule `Cc1c(Oc2c(F)cccc2F)c(OC(C)C)nn1-c1ncc(Br)cc1F`, in the data set on Plasmodium falciparum [1], the “growth inhibition (GI)” value was “inactive”. For the same molecule, in data set [2], the t1/2 worked out at 60 min. In the data set on Measles morbillivirus [3], this molecule showed a pMIC50 of 6.9.
`C/C(O)=C(\C#N)C(=O)Nc1ccc(C(F)(F)F)cc1` [TERIFLUNOMIDE] registered a 50% inhibitory concentration (IC50) in the data set with Jurkat of 60000 nM. Further, in the data set with Plasmodium falciparum [1], the “growth inhibition (GI)” value is “inactive”. This molecule also came in with an MIC50 in the data set with Measles morbillivirus [6] of 5 µM (≈ 1.35 µg/mL).
In the case of `CCOc1nn(-c2ncccc2C)c(C)c1Cc1ccccc1`, the “growth inhibition (GI)” value in the data set with Plasmodium falciparum [1] was “inactive”. The molecule further registered a pMIC50 in the data set with Measles morbillivirus [3] of less than 5.
Regarding `CCOc1nn(-c2ccc(C3CC3)cn2)c(C)c1Oc1ccccc1F`, the “growth inhibition (GI)” value in the data set with Plasmodium falciparum [1] is “inactive”. In the data set on Measles morbillivirus [3], this molecule returned a pMIC50 of 7.7.
For the molecule `Cc1ccc(-n2nc(OC(C)C)c(Oc3c(F)cccc3F)c2C)nn1`, the inhibition result in data set [4] was “inactive”. In addition, the IC50 in the data set with Plasmodium falciparum [5] is 470 nM.
In the case of `Cc1c(Oc2ccc(F)cc2)c(OC(C)C)nn1-c1ccc(C2CC2)cn1` [IPP/CNRS-A019], the “growth inhibition (GI)” value with Plasmodium falciparum [1] was “inactive”. Also, the pMIC50 in the data set on Measles morbillivirus [3] was 5.9.
Consider `CCOc1nn(-c2ccccn2)c(C)c1Cc1ccccc1`, for which the “growth inhibition (GI)” value in the data set on Plasmodium falciparum [1] was “inactive”. Besides, the pMIC50 in the data set on Measles morbillivirus [3] was less than 5.
As to `CCOc1nn(-c2ncc(Br)cc2C)c(C)c1Cc1ccccc1`, the “growth inhibition (GI)” value in the data set with Plasmodium falciparum [1] was “inactive”. Further, the pMIC50 in the data set on Measles morbillivirus [3] is on record as less than 5.
For `CCOc1nn(-c2ccc(C3CC3)nn2)c(C)c1Oc1ccccc1Cl`, in that order: “inactive” and 7.1.
In the case of `CCOc1nn(-c2ccc(C3CC3)nn2)c(C)c1Oc1cccc(Cl)c1Cl`, the “growth inhibition (GI)” value in the data set with Plasmodium falciparum [1] is “inactive”. Moreover, the pMIC50 in the data set on Measles morbillivirus [3] turned out to be 7.4.
In the case of `CCOc1nn(-c2ccc(C(C)C)cn2)c(C)c1Cc1ccccc1`, the “growth inhibition (GI)” value with Plasmodium falciparum [1] was “inactive”. This molecule showed a pMIC50 in the data set on Measles morbillivirus [3] of 5.9.
On the same counts, the results for `CCOc1nn(-c2ccc(C#N)cn2)c(C)c1Cc1ccccc1` are “inactive” and less than 5.
On to `COc1ccc(-n2nc(OC(C)C)c(Oc3c(F)cccc3F)c2C)nn1`, for which, in the data set with Plasmodium falciparum [1], the “growth inhibition (GI)” value is “inactive”. Moreover, the t1/2 in data set [2] turned out to be 22 min. For the same molecule, the pMIC50 with Measles morbillivirus [3] is 7.1.
With `CCOc1nn(-c2ccc(C3CC3)nn2)c(C)c1Oc1cccc(C(F)(F)F)c1`, the “growth inhibition (GI)” value in the data set with Plasmodium falciparum [1] is “inactive”. The molecule further showed a pMIC50 with Measles morbillivirus [3] of 6.4.
On to `Cc1c(Oc2cc(F)ccc2F)c(OC(C)C)nn1-c1ccc(C2CC2)cn1`, for which the “growth inhibition (GI)” value with Plasmodium falciparum [1] is “inactive”. Besides, in the data set on Measles morbillivirus [3], the pMIC50 worked out at 7.4.
For `CCOc1nn(-c2ccc(C3CC3)nn2)c(C)c1Oc1ccccc1C(F)(F)F`, in that order: “inactive” and 6.8.
For `CC(=O)c1ccc(-n2nc(OC(C)C)c(Oc3c(F)cccc3F)c2C)nc1`, in that order: “inactive” and 6.6.
For `CCOc1nn(-c2ncccc2F)c(C)c1Cc1ccccc1`, in that order: “inactive” and 5.2.
Consider `Cc1c(Oc2c(F)cccc2F)c(OC(C)C)nn1-c1cnc(C2CC2)nc1`, for which, in the data set on Plasmodium falciparum [1], the “growth inhibition (GI)” value is “inactive”. In the data set with Measles morbillivirus [3], this molecule registered a pMIC50 of 6.8.
